# Patent US20070149525A1, “Methods of treating amyloidosis using aryl-cyclopropyl derivative aspartyl protease inhibitors” (priority 2005, published 2007)
# “And” between values parts separate entries of the source, which are not always exact repeats. Equal entries are not always repeated.
# Legend:
# [1] = Brain to plasma ratio in female FVB mice; type: in vivo; conditions: 100 mpk dose
# [2] = test system: Madin-Darby Canine Kidney (MDCK) cells; assay: In vitro permeability across MDCK cell monolayer; type: in vitro ADME; conditions: test compound 5 μM, 2 h at 37° C., apical to basolateral
# Experimental: (§1) Compounds were evaluated for permeability across a monolayer of Madin-Darby Canine Kidney (MDCK) cells in a transwell device following culturing for 4 days. […] A 0.5 mL of cell suspension (400,000 cells/mL) was placed on membrane and a 1.5 mL media in the bottom wells on day 1. On day 2 and day 3, cells were fed with new media. […] Media was removed from upper chambers and filled with mHBSS with or without CspA, and incubated 30 min at 37° C. with light shaking. Donor chambers were emptied, and filled with test compound at 5 μM in mHBSS. […] Plates were incubated for 2 h at 37° C. with shaking. After 2 h, both the donor and receiver wells were sampled. The bottom chambers were read in a fluorometer to assess LY leakage, and then the media from all wells were assayed by LC/MS/MS to determine compound levels.
# [3] = In vitro permeability across MDCK cell monolayer; type: in vitro ADME, Canine; conditions: dog, MDCK, test compound 5 μM, 2 h at 37° C., apical to basolateral, read-out: Permeability Forward A > B
# Experimental: as §1
# P-gp = conditions: mdr1 a/b (-/-) and FVB wild-type, mouse, not told, iv, 2.5 mg/kg, 5 min
# Experimental: Use of mdr1 (−/−) mouse and its FVB wild-type littermates, which expresses P-gp at their blood-brain barrier (BBB), can distinguish between a test compound of high P-gp liability from one with a more desirable low P-gp liability.
# Test compounds are administered to both the mdr1 a/b (−/−) and the FVB wild-type mice (N=4/strain) intravenously at 2.5 mg/Kg through the tail vein. Plasma and brains are harvested at 5 min post administration. Test compound is extracted from tissue in parallel with calibration curves prepared from age-matched control tissues, then quantitated by LC/MS/MS. The ratio of brain concentration (Cb) to plasma concentration (Cp) is used as a measure of brain penetration according to the following formula: Brain Penetration (P)=Cb/Cp Therefore, a measure of brain penetration in the mdr1 (−/−) mouse relative to that of the wild-type animal represents an assessment of in vivo P-gp efflux, which is analogous to that determine in vitro with MDR1-MDCK cells. Calculations are made according to the following formula: Pmdr1/PFVB=In vivo Efflux
Structure (SMILES),Permeability Forward A > B [2],"Papp A→B at 2 h, 5 μM [3] [×10⁻⁶ cm/s]",also measured
CC(=O)NC(Cc1cc(F)cc(F)c1)C(O)CNC1(c2cccc(C(C)(C)C(F)F)c2)CC1 (centres unmarked) [23.57],–,–,"Brain AUC (0-6 h) [1]: 57 µM·h; Kp ([1]; mouse, brain and plasma, 100 mg/kg, AUC (0-6 h)): 0.7; AUC(0-t) ([1]; mouse, plasma, 100 mg/kg, read-out: Plasma AUC (0-6 h)): 86 µM·h"
"CC(=O)NC(Cc1cc(F)cc(F)c1)C(O)CNC1(c2cccc(C(C)C(F)(F)F)c2)CC1 (centres unmarked) [Example 23.28, N-(1-(3,5-difluorophenyl)-3-hydroxy-4-(1-(3-(1,1,1-trifluoropropan-2-yl)phenyl)cyclopropylamino)butan-2-yl)acetamide]",19.62 ×10⁻⁶ cm/s,12.6,–
"CC(=O)NC(Cc1cc(F)cc(F)c1)C(O)CNC1(c2cccc(-n3cccn3)c2)CC1C(C)C (centres unmarked) [Example 23.54, N-(4-(1-(3-(1H-pyrazol-1-yl)phenyl)-2-isopropylcyclopropylamino)-1-(3,5-difluorophenyl)-3-hydroxybutan-2-yl)acetamide]",14.8 ×10⁻⁶ cm/s,11.4,–
CNCC[C@@H](Oc1ccccc1C)c1ccccc1 [atomoxetine],–,–,in vivo P-gp efflux (Pmdr1/PFVB) (P-gp): 1.17

# Second part, led by results:
Permeability Forward A > B [2],"Papp A→B at 2 h, 5 μM [3] [×10⁻⁶ cm/s]",Structure (SMILES),also measured
12.21 ×10⁻⁶ cm/s and 18.32 ×10⁻⁶ cm/s,–,"CC(=O)NC(Cc1cc(F)cc(F)c1)C(O)CNC1(c2cccc(-n3cccn3)c2)CC1 (centres unmarked) [Example 23.11, N-(4-(1-(3-(1H-pyrazol-1-yl)phenyl)cyclopropylamino)-1-(3,5-difluorophenyl)-3-hydroxybutan-2-yl)acetamide]",–
16.29 ×10⁻⁶ cm/s,–,"CC(=O)NC(Cc1cc(F)cc(F)c1)C(O)CNC1(c2cccc(-n3cccn3)c2)CC1 (centres unmarked) [Example 23.12, N-(4-(1-(3-(1H-pyrazol-1-yl)phenyl)cyclopropylamino)-1-(3,5-difluorophenyl)-3-hydroxybutan-2-yl)acetamide]",–
8.78 ×10⁻⁶ cm/s,–,"CC(=O)NC(Cc1cc(F)cc(F)c1)C(O)CNC1(c2cccc(-n3cccn3)c2)CC1 (centres unmarked) [Example 23.18, N-(4-(1-(3-(1H-pyrazol-1-yl)phenyl)cyclopropylamino)-1-(3,5-difluorophenyl)-3-hydroxybutan-2-yl)acetamide]",–
16.35 ×10⁻⁶ cm/s,–,"CC(=O)NC(Cc1cc(F)cc(F)c1)C(O)CNC1(c2cccc(-n3cccn3)c2)CC1 (centres unmarked) [Example 23.27, N-(4-(1-(3-(1H-pyrazol-1-yl)phenyl)cyclopropylamino)-1-(3,5-difluorophenyl)-3-hydroxybutan-2-yl)acetamide]",–
14.1 ×10⁻⁶ cm/s and 9.2 ×10⁻⁶ cm/s,18.4,"CCC1CC1(NCC(O)C(Cc1cc(F)cc(F)c1)NC(C)=O)c1cccc(-n2cccn2)c1 (centres unmarked) [Example 23.55, N-(4-(1-(3-(1H-pyrazol-1-yl)phenyl)-2-ethylcyclopropylamino)-1-(3,5-difluorophenyl)-3-hydroxybutan-2-yl)acetamide]",–
